The experiment relates to antigen specific CD8+ T cells. Kind of experiment: Addition of IL-21 to NEO-STIM.RNA cultures. It counts as cell-based, human. An excerpt:
In order to improve the NEO-STIM protocol using RNA, IL-21 was explored as an addition to the protocol.
In order to improve the NEO-STIM protocol using RNA, IL-21 was explored as an addition to the protocol. […] Using IL-21 in NEO-STIM increases central memory phenotype in antigen specific CD8^+ T cells.

With “IL-21: cytokine added to the NEO-STIM protocol using RNA”, for the setting “NEO-STIM process using RNA encoded neoantigenic epitopes”, the “effect on expansion of T cells” value is reported as “improves expansion of T cells”. For the setting “NEO-STIM.RNA cultures”, the “effect on central memory phenotype in antigen specific CD8+ T cells” value is given as “increases the central memory phenotype” and the “effect on priming of specific T cells” value is reported as “improves the priming of specific T cells”.

The values above are taken from patent US20260115288A1, “T CELL MANUFACTURING COMPOSITIONS AND METHODS” (BioNTech US Inc., priority 2022, published 2026).
